Structures can show the parent of a compound that is named as a salt.
Tests used:
[1] = system: grafted B16 F0 murine melanoma tumour; assay: Biodistribution of the ^125I-labelled molecules in the melanoma-bearing mouse (autoradiography of whole-body sections)
Protocol: The distribution of the radioactivity of the various compounds in the body (tumour and other organs) is quantified using an Ambis 4000 image analyzer on sections of whole animals. […] All the in vivo experimentation is carried out within the context defined by French legislation relating to animal experimentation.
The B16 F0 melanoma cells are provided by the ATCC and cultured in monolayers in culture medium (MEM, Invitrogen) supplemented with 10% foetal calf serum and antibiotics. The cultures are maintained by subculturing after trypsinization. The cells of the first passages are frozen and stored in liquid nitrogen. For the transplanting, the cells in culture at confluence are detached by trypsinization and washed with phosphate buffer (PBS).
The distribution of the radioactivity present in the sections is analyzed using an AMBIS 4000 analyzer (Scanalytics, CSPI, San Diego, Calif.), which is a proportional counter with a multiwire chamber validated and calibrated beforehand for the monitoring of iodine in the mouse. The measurements require acquisition times of 1000 minutes. […] The value of radioactivity per unit of surface area (cpm/mm^2) is converted to concentration (kBq/g) and expressed as percentage of the injected dose/g of tissue (% ID/g).

tumour = assay: Dosimetry with regard to the tumour (MIRD programme, extrapolated to ^131I); conditions: for Effective period: extrapolated to 131I labelling; for Biological period: from biodistribution data
[2] = Elimination of the molecules: cumulative urinary and faecal excretion 0-72 hours; assay type: in vivo, mouse; conditions: for Faecal elimination 0-72 hours (Faeces) / Urinary and faecal elimination 0-72 hours (Total) / Urinary elimination 0-72 hours (Urine): cumulative excretion 0-72 hours; for Faecal elimination 0-72 hours (Faeces) / Urinary elimination 0-72 hours (Urine): mice in metabolic cages; for Urinary and faecal elimination 0-72 hours (Total): urine + faeces; for elimination kinetics from the body (in words): urine and faeces, up to 72 hours
[3] = 1 H after i.v. administration, ^125I-labelled compound
[4] = 3 H after i.v. administration, ^125I-labelled compound
[5] = 6 H after i.v. administration, ^125I-labelled compound
[6] = 24 H after i.v. administration, ^125I-labelled compound
[7] = 72 H after i.v. administration, ^125I-labelled compound

CCN(CC)CCNC(=O)c1cc2c(I)cccc2s1.Cl [compound 13, N-(2-diethylaminoethyl)-4-iodobenzo[b]thiophene-2-carboxamide hydrochloride]
Concentration of radioactivity, Ic (intestinal contents), Mean [1, 3]: 71.13 % ID/g
Concentration of radioactivity, Sc (stomach contents), Mean [1, 3]: 20.00 % ID/g
Concentration of radioactivity, blood (measured in the heart cavity), Mean [1, 3]: 1.37 % ID/g
Concentration of radioactivity, brain, Mean [1, 3]: 0.81 % ID/g
Concentration of radioactivity, kidney, Mean [1, 3]: 5.61 % ID/g
Concentration of radioactivity, liver, Mean [1, 3]: 2.21 % ID/g
Concentration of radioactivity, lungs, Mean [1, 3]: 3.69 % ID/g
Concentration of radioactivity, muscle (skeletal muscle), Mean [1, 3]: 0.77 % ID/g
Concentration of radioactivity, spleen, Mean [1, 3]: 3.88 % ID/g
Concentration of radioactivity, thyroid, Mean [1, 3]: 24.03 % ID/g
Concentration of radioactivity, uvea (pigmented tissues of the eye), Mean [1, 3]: 16.09 % ID/g
Concentration of radioactivity, B 16 (tumour), Mean [1, 4]: 9.98 % ID/g
Concentration of radioactivity, GB (gall bladder), Mean [1, 4]: 65.56 % ID/g
Concentration of radioactivity, Ic (intestinal contents), Mean [1, 4]: 73.02 % ID/g
Concentration of radioactivity, Sc (stomach contents), Mean [1, 4]: 5.93 % ID/g
Concentration of radioactivity, liver, Mean [1, 4]: 1.25 % ID/g
Concentration of radioactivity, thyroid, Mean [1, 4]: 67.21 % ID/g
Concentration of radioactivity, uvea (pigmented tissues of the eye), Mean [1, 4]: 19.51 % ID/g
Concentration of radioactivity, B 16 (tumour), Mean [1, 5]: 8.72 % ID/g
Concentration of radioactivity, Ic (intestinal contents), Mean [1, 5]: 37.70 % ID/g
Concentration of radioactivity, Sc (stomach contents), Mean [1, 5]: 18.77 % ID/g
Concentration of radioactivity, thyroid, Mean [1, 5]: 139.12 % ID/g
Concentration of radioactivity, uvea (pigmented tissues of the eye), Mean [1, 5]: 16.29 % ID/g
Concentration of radioactivity, B 16 (tumour), Mean [1, 6]: 7.28 % ID/g
Concentration of radioactivity, thyroid, Mean [1, 6]: 79.82 % ID/g
Concentration of radioactivity, uvea (pigmented tissues of the eye), Mean [1, 6]: 11.06 % ID/g
Concentration of radioactivity, B 16 (tumour), Mean [1, 7]: 1.73 % ID/g
Concentration of radioactivity, uvea (pigmented tissues of the eye), Mean [1, 7]: 9.22 % ID/g
Effective period (tumour): 23.5 h
Biological period (tumour): 26.7 hours
Faecal elimination 0-72 hours (Faeces) [2]: 46.7%
Urinary and faecal elimination 0-72 hours (Total) [2]: 99.3%
Urinary elimination 0-72 hours (Urine) [2]: 52.6%
elimination route (in words) ([2]; urinary versus faecal, 0-72 hours): about equivalent
elimination kinetics from the body (in words) [2]: complete at 72 hours

CCN(CC)CCNC(=O)c1nc2ccccn2c1I [compound 16, N-(2-diethylaminoethyl)-3-iodoimidazo[1,2-a]pyridine-2-carboxamide dihydrochloride]
Concentration of radioactivity, B 16 (tumour), Mean [1, 3]: 2.96 % ID/g
Concentration of radioactivity, Ic (intestinal contents), Mean [1, 3]: 58.60 % ID/g
Concentration of radioactivity, Sc (stomach contents), Mean [1, 3]: 24.51 % ID/g
Concentration of radioactivity, blood (measured in the heart cavity), Mean [1, 3]: 2.20 % ID/g
Concentration of radioactivity, brain, Mean [1, 3]: 0.33 % ID/g
Concentration of radioactivity, kidney, Mean [1, 3]: 7.12 % ID/g
Concentration of radioactivity, liver, Mean [1, 3]: 4.86 % ID/g
Concentration of radioactivity, lungs, Mean [1, 3]: 6.48 % ID/g
Concentration of radioactivity, muscle (skeletal muscle), Mean [1, 3]: 1.10 % ID/g
Concentration of radioactivity, spleen, Mean [1, 3]: 8.16 % ID/g
Concentration of radioactivity, uvea (pigmented tissues of the eye), Mean [1, 3]: 28.30 % ID/g
Concentration of radioactivity, B 16 (tumour), Mean [1, 4]: 5.40 % ID/g
Concentration of radioactivity, Ic (intestinal contents), Mean [1, 4]: 52.06 % ID/g
Concentration of radioactivity, Sc (stomach contents), Mean [1, 4]: 30.71 % ID/g
Concentration of radioactivity, blood (measured in the heart cavity), Mean [1, 4]: 3.93 % ID/g
Concentration of radioactivity, brain, Mean [1, 4]: 0.36 % ID/g
Concentration of radioactivity, kidney, Mean [1, 4]: 5.04 % ID/g
Concentration of radioactivity, liver, Mean [1, 4]: 2.56 % ID/g
Concentration of radioactivity, lungs, Mean [1, 4]: 3.38 % ID/g
Concentration of radioactivity, muscle (skeletal muscle), Mean [1, 4]: 1.30 % ID/g
Concentration of radioactivity, spleen, Mean [1, 4]: 12.67 % ID/g
Concentration of radioactivity, uvea (pigmented tissues of the eye), Mean [1, 4]: 16.60 % ID/g
Concentration of radioactivity, B 16 (tumour), Mean [1, 5]: 9.87 % ID/g
Concentration of radioactivity, Ic (intestinal contents), Mean [1, 5]: 26.14 % ID/g
Concentration of radioactivity, Sc (stomach contents), Mean [1, 5]: 48.21 % ID/g
Concentration of radioactivity, brain, Mean [1, 5]: 0.65 % ID/g
Concentration of radioactivity, kidney, Mean [1, 5]: 4.47 % ID/g
Concentration of radioactivity, lungs, Mean [1, 5]: 4.56 % ID/g
Concentration of radioactivity, uvea (pigmented tissues of the eye), Mean [1, 5]: 22.16 % ID/g
Concentration of radioactivity, B 16 (tumour), Mean [1, 6]: 5.22 % ID/g
Concentration of radioactivity, uvea (pigmented tissues of the eye), Mean [1, 6]: 11.17 % ID/g
Concentration of radioactivity, Sc (stomach contents), Mean [1, 7]: 3.42 % ID/g
Concentration of radioactivity, uvea (pigmented tissues of the eye), Mean [1, 7]: 2.41 % ID/g
Effective period (tumour): 7.5 h
Biological period (tumour): 7.8 hours
Faecal elimination 0-72 hours (Faeces) [2]: 24.0%
Urinary and faecal elimination 0-72 hours (Total) [2]: 76.6%
Urinary elimination 0-72 hours (Urine) [2]: 52.6%

CCN(CC)CCNC(=O)c1nc2ccc(I)cc2[nH]1.Cl.Cl [compound 26, N-(2-diethylaminoethyl)-5-iodobenzimidazole-2-carboxamide dihydrochloride]
Concentration of radioactivity, B 16 (tumour), Mean [1, 3]: 14.78 % ID/g
Concentration of radioactivity, Ic (intestinal contents), Mean [1, 3]: 105.55 % ID/g
Concentration of radioactivity, Sc (stomach contents), Mean [1, 3]: 24.46 % ID/g
Concentration of radioactivity, blood (measured in the heart cavity), Mean [1, 3]: 3.31 % ID/g
Concentration of radioactivity, kidney, Mean [1, 3]: 6.90 % ID/g
Concentration of radioactivity, liver, Mean [1, 3]: 13.08 % ID/g
Concentration of radioactivity, lungs, Mean [1, 3]: 5.16 % ID/g
Concentration of radioactivity, muscle (skeletal muscle), Mean [1, 3]: 0.55 % ID/g
Concentration of radioactivity, pancreas, Mean [1, 3]: 6.17 % ID/g
Concentration of radioactivity, spleen, Mean [1, 3]: 11.51 % ID/g
Concentration of radioactivity, uvea (pigmented tissues of the eye), Mean [1, 3]: 12.87 % ID/g
Concentration of radioactivity, B 16 (tumour), Mean [1, 4]: 16.13 % ID/g
Concentration of radioactivity, GB (gall bladder), Mean [1, 4]: 160.60 % ID/g
Concentration of radioactivity, Ic (intestinal contents), Mean [1, 4]: 72.05 % ID/g
Concentration of radioactivity, Sc (stomach contents), Mean [1, 4]: 17.98 % ID/g
Concentration of radioactivity, blood (measured in the heart cavity), Mean [1, 4]: 1.33 % ID/g
Concentration of radioactivity, kidney, Mean [1, 4]: 4.57 % ID/g
Concentration of radioactivity, liver, Mean [1, 4]: 7.15 % ID/g
Concentration of radioactivity, lungs, Mean [1, 4]: 3.74 % ID/g
Concentration of radioactivity, thyroid, Mean [1, 4]: 63.44 % ID/g
Concentration of radioactivity, uvea (pigmented tissues of the eye), Mean [1, 4]: 24.40 % ID/g
Concentration of radioactivity, B 16 (tumour), Mean [1, 5]: 9.90 % ID/g
Concentration of radioactivity, GB (gall bladder), Mean [1, 5]: 38.11 % ID/g
Concentration of radioactivity, Ic (intestinal contents), Mean [1, 5]: 95.86 % ID/g
Concentration of radioactivity, Sc (stomach contents), Mean [1, 5]: 8.62 % ID/g
Concentration of radioactivity, liver, Mean [1, 5]: 3.38 % ID/g
Concentration of radioactivity, spleen, Mean [1, 5]: 14.97 % ID/g
Concentration of radioactivity, thyroid, Mean [1, 5]: 34.17 % ID/g
Concentration of radioactivity, uvea (pigmented tissues of the eye), Mean [1, 5]: 10.09 % ID/g
Concentration of radioactivity, B 16 (tumour), Mean [1, 6]: 7.06 % ID/g
Concentration of radioactivity, Ic (intestinal contents), Mean [1, 6]: 3.19 % ID/g
Concentration of radioactivity, Sc (stomach contents), Mean [1, 6]: 2.32 % ID/g
Concentration of radioactivity, thyroid, Mean [1, 6]: 142.88 % ID/g
Concentration of radioactivity, uvea (pigmented tissues of the eye), Mean [1, 6]: 10.44 % ID/g
Concentration of radioactivity, B 16 (tumour), Mean [1, 7]: 4.54 % ID/g
Concentration of radioactivity, thyroid, Mean [1, 7]: 174.73 % ID/g
Concentration of radioactivity, uvea (pigmented tissues of the eye), Mean [1, 7]: 7.26 % ID/g
tumour concentration, times higher than with BZA ([1]; at 72 hours (FIG. 1B)): 6 times
tumour concentration, % of the injected dose per gram of tumour ([1]; from the first hour): 14.8 % ID/g
Effective period (tumour): 35.1 h
Biological period (tumour): 42.9 hours
Faecal elimination 0-72 hours (Faeces) [2]: 40.7%
Urinary and faecal elimination 0-72 hours (Total) [2]: 57.8%
Urinary elimination 0-72 hours (Urine) [2]: 17.1%
elimination kinetics from the body (in words) [2]: lower elimination
